Like-named read-outs stand apart in the source and are kept apart here.
Test system: human vascular endothelial cell lines
Experiment: Inhibition of radiation-induced endothelial cell transition (EndMT), phalloidin immunofluorescence staining
Format: cell-based
Conditions: 10 uM test substance 1 hour before 10 Gy irradiation, 72 hours after irradiation, relative ratio with IR group (10 Gy alone) as 100%; for activity at 10 µM: Homo sapiens, Endothelial cell, light or radiation study
Description: Test substances (Examples 1 to 45) were treated with a 10 mM DMSO solution at a ratio of 1 µL per 1 mL of cell culture medium to a final concentration of 10 uM, and the test substances were treated 1 hour before irradiation on human vascular endothelial cell lines (Promocell, Germany), and then, it was irradiated at an intensity of 10 Gy. 72 hours after irradiation, the human vascular endothelial cell lines were fixed with 10% formalin, and the experiment was conducted according to the manufacturer's method using phalloidin (Invitrogen, USA) to confirm the cytoskeleton filaments that increase during fibrosis. Phalloidin is a protein that binds to the actin of cytoskeleton filaments, and phalloidin conjugated with FITC fluorescent substance made the cytoskeleton filaments appear green when observed under a microscope.
After treatment with the test substance, the area, length and density of phalloidin were measured by using a confocal microscope, and the relative ratio was expressed with the irradiated group (IR group) that was irradiated with 10 Gy alone as 100% (Table 1).

## O[C@@H]1[C@H](O)CS[C@H]1n1cnc2c(NC3CCCCc4ccccc43)nc(Cl)nc21 (stereo partly drawn) [Example 42, (2R,3R,4S)-2-(2-chloro-6-((6,7,8,9-tetrahydro-5H-benzo[7]annulen-5-yl)amino)-9H-purin-9-yl)tetrahydrothiophene-3,4-diol]
read-out: Palloidin Area
  activity at 10 µM: > 80%
read-out: Palloidin Intensity
  activity at 10 µM: > 80%
read-out: Palloidin Length
  activity at 10 µM: > 80%

## NC(=O)c1ccc2c(c1)CC[C@H]2Nc1nc(Cl)nc2c1ncn2[C@@H]1SC[C@@H](O)[C@H]1O [Example 34, (R)-1-((2-chloro-9-((2R,3R,4S)-3,4-dihydroxytetrahydrothiophen-2-yl)-9H-purin-6-yl)amino)-2,3-dihydro-1H-indene-5-carboxamide]
  Palloidin Length: + +
read-out: Palloidin Area
  activity at 10 µM: > 80%
read-out: Palloidin Intensity
  activity at 10 µM: > 80%

## O[C@@H]1[C@H](O)CS[C@H]1n1cnc2c(N[C@@H]3CCc4cccc(Br)c43)nc(Cl)nc21 [Example 26, (2R,3R,4S)-2-[2-chloro-6-[[(1R)-7-bromoindan-1-yl]amino]purin-9-yl]tetrahydrothiophene-3,4-diol]
read-out: Palloidin Area
  activity at 10 µM: 20 to 50%
read-out: Palloidin Intensity
  activity at 10 µM: 50 to 80%
read-out: Palloidin Length
  activity at 10 µM: 50 to 80%

## O=C(O)c1cccc2c1CC[C@H]2Nc1nc(Cl)nc2c1ncn2[C@@H]1SC[C@@H](O)[C@H]1O [Example 32, (R)-1-((2-chloro-9-((2R,3R,4S)-3,4-dihydroxytetrahydrothiophen-2-yl)-9H-purin-6-yl)amino)-2,3-dihydro-1H-indene-4-carboxylic acid]
read-out: Palloidin Area
  activity at 10 µM: > 80%
read-out: Palloidin Intensity
  activity at 10 µM: > 80%
read-out: Palloidin Length
  activity at 10 µM: > 80%

## O[C@@H]1[C@H](O)CS[C@H]1n1cnc2c(NC3CCc4ccccc4CC3)nc(Cl)nc21 [Example 43, (2R,3R,4S)-2-(2-chloro-6-((6,7,8,9-tetrahydro-5H-benzo[7]annulen-7-yl)amino)-9H-purin-9-yl)tetrahydrothiophene-3,4-diol]
read-out: Palloidin Area
  activity at 10 µM: > 80%
read-out: Palloidin Intensity
  activity at 10 µM: > 80%
read-out: Palloidin Length
  activity at 10 µM: > 80%

## CC#Cc1nc(N[C@H]2CCc3ccccc32)c2ncn([C@@H]3SC[C@@H](O)[C@H]3O)c2n1 [Example 2, (2R,3R,4S)-2-[6-[[(1S)-indan-1-yl]amino]-2-prop-1-ynyl-purin-9-yl]tetrahydrothiophene-3,4-diol]
read-out: Palloidin Area
  activity at 10 µM: > 80%
read-out: Palloidin Intensity
  activity at 10 µM: > 80%
read-out: Palloidin Length
  activity at 10 µM: > 80%

## O[C@@H]1[C@H](O)CS[C@H]1n1cnc2c(N[C@@H]3CCc4ccccc43)nc(Cl)nc21 [Example 9, (2R,3R,4S)-2-[2-chloro-6-[[(1R)-indan-1-yl]amino]purin-9-yl]tetrahydrothiophene-3,4-diol]
read-out: Palloidin Area
  activity at 10 µM: 50 to 80%
read-out: Palloidin Intensity
  activity at 10 µM: 50 to 80%
read-out: Palloidin Length
  activity at 10 µM: 50 to 80%

## CC#Cc1nc(N[C@@H]2CCc3ccccc32)c2ncn([C@@H]3SC[C@@H](O)[C@H]3O)c2n1 [Example 1, (2R,3R,4S)-2-[6-[[(1R)-indan-1-yl]amino]-2-prop-1-ynyl-purin-9-yl]tetrahydrothiophene-3,4-diol]
read-out: Palloidin Area
  activity at 10 µM: 50 to 80%
read-out: Palloidin Intensity
  activity at 10 µM: 50 to 80%
read-out: Palloidin Length
  activity at 10 µM: > 80%

## Cc1ccc2c(c1)CC[C@H]2Nc1nc(Cl)nc2c1ncn2[C@@H]1SC[C@@H](O)[C@H]1O [Example 27, (2R,3R,4S)-2-[2-chloro-6-[[(1R)-5-methylindan-1-yl]amino]purin-9-yl]tetrahydrothiophene-3,4-diol]
read-out: Palloidin Area
  activity at 10 µM: > 80%
read-out: Palloidin Intensity
  activity at 10 µM: > 80%
read-out: Palloidin Length
  activity at 10 µM: > 80%

## O[C@@H]1[C@H](O)CS[C@H]1n1cnc2c(N[C@@H]3CCCc4ccccc43)nc(Cl)nc21 [Example 39, (2R,3R,4S)-2-(2-chloro-6-(((R)-1,2,3,4-tetrahydronaphthalen-1-yl)amino)-9H-purin-9-yl)tetrahydrothiophene-3,4-diol]
read-out: Palloidin Area
  activity at 10 µM: > 80%
read-out: Palloidin Intensity
  activity at 10 µM: > 80%
read-out: Palloidin Length
  activity at 10 µM: > 80%

## O[C@@H]1[C@H](O)CS[C@H]1n1cnc2c(N[C@H]3CCc4ccccc43)nc(Cl)nc21 [Example 10, (2R,3R,4S)-2-[2-chloro-6-[[(1S)-indan-1-yl]amino]purin-9-yl]tetrahydrothiophene-3,4-diol]
read-out: Palloidin Area
  activity at 10 µM: > 80%
read-out: Palloidin Intensity
  activity at 10 µM: > 80%
read-out: Palloidin Length
  activity at 10 µM: > 80%

## O[C@@H]1[C@H](O)CS[C@H]1n1cnc2c(N[C@@H]3CCc4cc(Br)ccc43)nc(Cl)nc21 [Example 20, (2R,3R,4S)-2-[2-chloro-6-[[(1R)-5-bromoindan-1-yl]amino]purin-9-yl]tetrahydrothiophene-3,4-diol]
read-out: Palloidin Area
  activity at 10 µM: < 20%
read-out: Palloidin Intensity
  activity at 10 µM: 20 to 50%
read-out: Palloidin Length
  activity at 10 µM: < 20%

## O[C@@H]1[C@H](O)CS[C@H]1n1cnc2c(N[C@@H]3CCc4cc(Cl)ccc43)nc(Cl)nc21 [Example 18, (2R,3R,4S)-2-[2-chloro-6-[[(1R)-5-chloroindan-1-yl]amino]purin-9-yl]tetrahydrothiophene-3,4-diol]
read-out: Palloidin Area
  activity at 10 µM: < 20%
read-out: Palloidin Intensity
  activity at 10 µM: < 20%
read-out: Palloidin Length
  activity at 10 µM: < 20%

## O[C@@H]1[C@H](O)CS[C@H]1n1cnc2c(N[C@@H]3CCc4cc(C(F)(F)F)ccc43)nc(Cl)nc21 [Example 28, (2R,3R,4S)-2-[2-chloro-6-[[(1R)-5-(trifluoromethyl)indan-1-yl]amino]purin-9-yl]tetrahydrothiophene-3,4-diol]
read-out: Palloidin Area
  activity at 10 µM: 50 to 80%
read-out: Palloidin Intensity
  activity at 10 µM: 50 to 80%
read-out: Palloidin Length
  activity at 10 µM: > 80%

## COc1ccc2c(c1)CC[C@H]2Nc1nc(Cl)nc2c1ncn2[C@@H]1SC[C@@H](O)[C@H]1O [Example 12, (2R,3R,4S)-2-[2-chloro-6-[[(1R)-5-methoxyindan-1-yl]amino]purin-9-yl]tetrahydrothiophene-3,4-diol]
read-out: Palloidin Area
  activity at 10 µM: > 80%
read-out: Palloidin Intensity
  activity at 10 µM: > 80%
read-out: Palloidin Length
  activity at 10 µM: > 80%

## O[C@@H]1[C@H](O)CS[C@H]1n1cnc2c(N[C@@H]3CCc4c(F)cccc43)nc(Cl)nc21 [Example 15, (2R,3R,4S)-2-[2-chloro-6-[[(1R)-4-fluoroindan-1-yl]amino]purin-9-yl]tetrahydrothiophene-3,4-diol]
read-out: Palloidin Area
  activity at 10 µM: < 20%
read-out: Palloidin Intensity
  activity at 10 µM: < 20%
read-out: Palloidin Length
  activity at 10 µM: < 20%

## O=C(O)c1ccc2c(c1)CC[C@H]2Nc1nc(Cl)nc2c1ncn2[C@@H]1SC[C@@H](O)[C@H]1O [Example 33, (R)-1-((2-chloro-9-((2R,3R,4S)-3,4-dihydroxytetrahydrothiophen-2-yl)-9H-purin-6-yl)amino)-2,3-dihydro-1H-indene-5-carboxylic acid]
read-out: Palloidin Area
  activity at 10 µM: > 80%
read-out: Palloidin Intensity
  activity at 10 µM: > 80%
read-out: Palloidin Length
  activity at 10 µM: > 80%

## O[C@@H]1[C@H](O)CS[C@H]1n1cnc2c(N[C@@H]3CCc4ccccc4C3)nc(Cl)nc21 [Example 37, (2R,3R,4S)-2-(2-chloro-6-(((R)-1,2,3,4-tetrahydronaphthalen-2-yl)amino)-9H-purin-9-yl)tetrahydrothiophene-3,4-diol]
read-out: Palloidin Area
  activity at 10 µM: 50 to 80%
read-out: Palloidin Intensity
  activity at 10 µM: 50 to 80%
read-out: Palloidin Length
  activity at 10 µM: > 80%

## O[C@@H]1[C@H](O)CS[C@H]1n1cnc2c(N[C@@H]3CCc4ccccc43)nc(I)nc21 [Example 44, (2R,3R,4S)-2-(6-(((R)-2,3-dihydro-1H-inden-1-yl)amino)-2-iodo-9H-purin-9-yl)tetrahydrothiophene-3,4-diol]
read-out: Palloidin Area
  activity at 10 µM: 20 to 50%
read-out: Palloidin Intensity
  activity at 10 µM: 20 to 50%
read-out: Palloidin Length
  activity at 10 µM: 20 to 50%

## O[C@@H]1[C@H](O)CS[C@H]1n1cnc2c(N[C@H]3CCc4ccccc4C3)nc(Cl)nc21 [Example 36, (2R,3R,4S)-2-(2-chloro-6-(((S)-1,2,3,4-tetrahydronaphthalen-2-yl)amino)-9H-purin-9-yl)tetrahydrothiophene-3,4-diol]
read-out: Palloidin Area
  activity at 10 µM: > 80%
read-out: Palloidin Intensity
  activity at 10 µM: > 80%
read-out: Palloidin Length
  activity at 10 µM: > 80%

## CCC#Cc1nc(N[C@H]2CCc3ccccc32)c2ncn([C@@H]3SC[C@@H](O)[C@H]3O)c2n1 [Example 4, (2R,3R,4S)-2-[2-but-1-ynyl-6-[[(1S)-indan-1-yl]amino]purin-9-yl]tetrahydrothiophene-3,4-diol]
read-out: Palloidin Area
  activity at 10 µM: 50 to 80%
read-out: Palloidin Intensity
  activity at 10 µM: 50 to 80%
read-out: Palloidin Length
  activity at 10 µM: 50 to 80%

## COC(=O)c1ccc2c(c1)CC[C@H]2Nc1nc(Cl)nc2c1ncn2[C@@H]1SC[C@@H](O)[C@H]1O [Example 31, Methyl (R)-1-((2-chloro-9-((2R,3R,4S)-3,4-dihydroxytetrahydrothiophen-2-yl)-9H-purin-6-yl)amino)-2,3-dihydro-1H-indene-5-carboxylate]
read-out: Palloidin Area
  activity at 10 µM: > 80%
read-out: Palloidin Intensity
  activity at 10 µM: > 80%
read-out: Palloidin Length
  activity at 10 µM: > 80%

## N#Cc1ccc2c(c1)CC[C@H]2Nc1nc(Cl)nc2c1ncn2[C@@H]1SC[C@@H](O)[C@H]1O [Example 29, (1R)-1-[[2-chloro-9-[(2R,3R,4S)-3,4-dihydroxytetrahydrothiophen-2-yl]purin-6-yl]amino]indane-5-carbonitrile]
read-out: Palloidin Area
  activity at 10 µM: 50 to 80%
read-out: Palloidin Intensity
  activity at 10 µM: 50 to 80%
read-out: Palloidin Length
  activity at 10 µM: > 80%

## O[C@@H]1[C@H](O)CS[C@H]1n1cnc2c(N[C@@H]3CCc4ccccc43)ncnc21 [Example 45, (2R,3R,4S)-2-(6-(((R)-2,3-dihydro-1H-inden-1-yl)amino)-9H-purin-9-yl)tetrahydrothiophene-3,4-diol]
read-out: Palloidin Area
  activity at 10 µM: > 80%
read-out: Palloidin Intensity
  activity at 10 µM: > 80%
read-out: Palloidin Length
  activity at 10 µM: > 80%

## N#Cc1cccc2c1CC[C@H]2Nc1nc(Cl)nc2c1ncn2[C@@H]1SC[C@@H](O)[C@H]1O [Example 24, (1R)-1-[[2-chloro-9-[(2R,3R,4S)-3,4-dihydroxytetrahydrothiophen-2-yl]purin-6-yl]amino]indane-4-carbonitrile]
read-out: Palloidin Area
  activity at 10 µM: 50 to 80%
read-out: Palloidin Intensity
  activity at 10 µM: 50 to 80%
read-out: Palloidin Length
  activity at 10 µM: 50 to 80%
